Data reported in patent US5175156A, “Chromic picolinate treatment” (Nutrition 21, priority 1991, dated 1992).
Where “and” joins values, the source holds several entries; their conditions need not be identical. Equal entries are not always repeated. Entries after “also recorded” stand apart in the source; their conditions may differ.

What was measured:
[1] = in vivo; cited from earlier work
[2] = tested on: Glucose Tolerance Factor activity; test: Glucose Tolerance Factor activity; conditions: no data given
[3] = in vivo
Experimental: Subjects for the study were obtained after screening a group of volunteers. Thirty-two volunteers age 25-80 with total cholesterol levels of 5.7-8.3 mmoles/l (220-320 mg/dl) were initially chosen. […] None of the subjects was using beta blockers, thiazide diuretics, steroids, chromium supplements or any investigational drugs. The volunteers were requested not to alter dietary or exercise habits during the course of the study. Informed consent was obtained and the subjects were paid a stipend for their participation.
For the double-blind, cross-over study, subjects were divided randomly into two treatment groups by a non-participant. During each half of the study participants ingested gelatin capsules that contained either chromic tripicolinate or a placebo. The chromic tripicolinate supplement contained 1.6 mg chromium tripicolinate (200 micrograms Cr^+3) mixed with 5 mg calcium phosphate. The placebo contained only 5 mg calcium phosphate. The study consisted of two 42-day periods with a 14-day period off capsules between treatments. Compliance by subjects was monitored by capsule count.
At the beginning, after three weeks and at the end of each period, heart rate, blood pressure, weight and temperature were measured and a fasting-blood sample was drawn. Serum parameters measured included total cholesterol, LDL-cholesterol, HDL-cholesterol, triglycerides, apolipoprotein A1 and apolipoprotein B. Serum concentrations of cholesterol and triglycerides were determined with an Olympus 500 Automated Colormetric System (Olympus Instrument Co., Los Angeles, Calif., U.S.A.). HDL-cholesterol was assayed with an enzyme heparin-manganese chloride precipitation method (Albers et al., Clin Chem., 1978; 24:853-856). LDL-cholesterol was estimated by the method of Friedwald (Friedwald, Clin Chem., 1972; 18:499-502). Concentrations of apolipoprotein A1 and apolipoprotein B in serum were assayed with a nephelometric immunoassay (Naito, J. Clin. Immunol.. 1986; 9:110-120) using a Boehringer laser kit.
For statistical analysis of the measurements made in this study, the values obtained at the beginning and at the end of each 42-day period were used. Because each subject served as its own control, paired t tests were used to identify statistically significant differences between mean values of changes and differences in changes. Student's t test and p values were determiend with the program WORMSTAT™ (available from Small Business Computers, New England, Conn., U.S.A.).

[4] = tested on: insulin and insulin receptors; test: Binding to insulin and insulin receptors; conditions: no data given
[5] = Absorption of orally administered chromium-51 compounds, radioactivity in liver and kidney (Example 1); conditions: rat; for Total radioactivity in tissue, Kidney / Total radioactivity in tissue, Liver: 150 ng oral gavage, 120 h after administration
Experimental: In this example, chromic tripicolinate was first synthesized by combining 3.66 grams of picolinic acid (Sigma Chemical, St. Louis) and 2.66 grams of chromic chloride with 20 ml. of deionized water. The solution was heated with stirring for 15 minutes after which the contents were placed in a refrigerator overnight to obtain maximum crystalization. The supernatant was removed by vacuum filtration followed by recrystalization from hot deionized water. To synthesize chromic (chromium-51) tripicolinate, 0.12 micromoles recrystalized picolinic acid was added to a solution containing 0.03 micromoles of chromic (Cr^51) chloride in 5.0 ml. acetate buffer, pH 5.0. The solution was stirred for 30 minutes at 90° C., cooled and subsequently reheated for 30 minutes at 90° C. The solution was cooled to room temperature before use.
Each of four male Sprague-Dawley rats weighing 125-150g was given an oral dose of 150 ng. chromic (Cr-51) picolinate in 0.51 ml. by gavage tube. An identical quantity of Cr-5I as chloride in acetate buffer was also administered to each of four rats. […] One hundred twenty hours after oral administration of the two forms of labeled chromium, each of the rats was killed by exsanguination after which the liver and kidneys were removed and cut into 1.0 g portions for assay of radioactivity content.

[6] = Anabolic effect in male university students in weight training (Example 5); format: in vivo, human
Experimental: This study was performed to evaluate the anabolic effect of chromic tripicolinate in male subjects.
At the start of the study, 10 male university students enrolled in weight training classes, were given, at random, a 40-day supply of capsules that contained either placebo (5 mg of calcium phosphate) or chromic tripicolinate ([…] chromic tripicolinate admixed with 5 mg of calcium phosphate, which provided 200 ug of chromium). The identity of the capsules was known only to an individual who was not in any way involved in the study. During the 40-day period, each of the volunteers followed a prescribed weight lifting protocol for a total of 3 hours per week. Measurements taken at the beginning and again at the end of the study included various skin-fold thicknesses, biceps and calf circumferences, and body weight. Percent body fat was derived from the sum of the triceps, subscapular and chest skinfolds. Lean body mass was derived from anthropometrically-determined percent body fat: weight-(weight×percent body fat).

[7] = Oral toxicity experiment in rats (Example 2); format: in vivo
Experimental: In a toxicity experiment, rats weighing a mean of 223.4 g were given an oral suspension of 100 mg, 300 mg and 500 mg chromic tripicolinate in water. […] The tests were stopped at 500 mg because it was impossible to obtain a workable suspension beyond this level.

serum lipid parameters = test: Double-blind cross-over human study, serum lipid parameters (Example 3); format: in vivo
Experimental: Chromium tripicolinate was synthesized by first dissolving 2.66 g CrCl3.6 H2 O in 25 ml warm (60° C.), deionized water. Thereafter, 3.69 g picolinic acid (Sigma Chemical, St. Louis, Mo., U.S.A.) was added and the contents were stirred with gentle heating until the solution turned purple and crystals began to form. The solution was then left standing at 4° C. overnight. The supernatant was then discarded and the crystals were airdried at room temperature.
The placebo contained only 5 mg calcium phosphate. […] Compliance by subjects was monitored by capsule count. The foregoing study protocol is illustrated in FIG. 1.

[8] = tested on: adult onset diabetes mellitus (AODM)
Experimental: Eleven subjects with adult onset diabetes mellitus (AODM), participated in this study. These subjects had hemoglobin A1 C concentrations greater than 9.0 and were on stable doses of oral hypoglycemic agents for four months. […] The dose of oral agent remained constant during the study.
The following parameters: Cholesterol, HDL, LDL, and hemoglobin A1 C were tested initially, and at the end of each half of the study. Fasting blood sugars, blood pressure, weight and temperature were tested initially; at three weeks; and at the end of the study.
Glycosylated hemoglobin was measured by a modification of the method of Clegg and Schroeder (Clegg, et al. J. Lab Clin. Med., 102:577-589, (1983)), using a Fast Hemoglobin Minicolumn, available from Isolab; Akron, Ohio, U.S.A.). Normal values are 5.5 to 7.5%. Fasting glucoses were measured by finger stick glucometer readings (using an Accucheck II from Boehringer Mannheim, Indianapolis, Ind., U.S.A.).
Split samples of cholesterol were sent to laboratories for analysis. Split samples of apolipoproteins were analyzed on a Beckman Array protein analyzer that was standardized by the Center for Disease Control, Atlanta, Georgia, U.S.A., using Lipid Research Clinic Guidelines (see J. A. M. A. 251: 351, (1984) and J. A. M. A. 251: 365, (1984)).
For EXAMPLE 4, summary statistics are expressed as the mean ± standard error of the mean (SEM). Split-plot analyses of variance were used to assess treatment effects on the various parameters in the cross-over studies of variance (see Hills, et al., Br. J. Clin. Pharmacol. 8:7-20, (1979)). Correlation analysis was performed with a linear regression curve-fitting program.

[9] = 28 subjects, mean ± SD, 42 days
[10] = 28 subjects, mean ± SD, 42 days, listed as Chromic Tripicolinate
[11] = 28 subjects, mean ± SD, start of 42-day period
[12] = combined results, 42 days, p<0.001
[13] = 6 weeks Cr supplementation, 11 AODM subjects, mean ± SEM
[14] = 6 weeks Cr supplementation, 11 AODM subjects, mean ± SEM, significant difference from placebo, p <0.05

[Cr] [chromium]
effect of supplementation, result in words [1]: improvements in glucose tolerance, serum lipid concentrations, including high-density lipoprotein cholesterol, insulin and insulin binding

chromic tripicolinate
Glucose Tolerance Factor activity [2]: has Glucose Tolerance Factor activity | blood pressure, change in words [3]: No significant changes | heart rate, change in words [3]: No significant changes | subjects who developed a fine rash about their forearms [3]: one | subjects who developed mouth ulcers [3]: one | temperature, change in words [3]: No significant changes | binding to insulin and insulin receptors [4]: binds to insulin and insulin receptors | rate of absorption relative to chromic chloride ([5]; in vivo, po, 7200 min): about 4 times | calculated lean body mass, increase ([6]; 40 days, 200 ug chromium, P=0.017): 1.6 kg | calf circumference, increase ([6]; 40 days, 200 ug chromium, P=0.029): 1.15±0.67 cm | body weight, increase ([6]; 40 days, 200 ug chromium, P=0.0325): 2.18 ± 1.34 kg | increase in lean body mass compared with placebo group ([6]; Student's t test, P=0.0198): significantly greater | human dose before any effects would be observed ([7]; 70 Kg human, extrapolated from rats): greater than 156 grams | oral lethal dose ([7]; rats, mean 223.4 g, oral suspension in water): > 2200 mg/kg | deaths ([7]; rats, oral 100 mg, 300 mg and 500 mg): No deaths occurred | Apo B, change (serum lipid parameters; 28 subjects, 42 days, p = .001): -25 mg/dL | Apo A, change (serum lipid parameters; 28 subjects, 42 days, p = .003): +16 mg/dl | apolipoprotein B, reduction (serum lipid parameters; 28 subjects, 42 days, p=0.001): 16% | LDL-cholesterol, final (serum lipid parameters; 28 subjects, after 42 days): 178 mg/dL | LDL-cholesterol, initial (serum lipid parameters; 28 subjects, before 42 days): 200 mg/dL | Apo A, final (serum lipid parameters; [9]): 163 ± 31 mg/dL | Apo B, final (serum lipid parameters; [9]): 130 mg/dL | Cholesterol Total, final (serum lipid parameters; [9]): 256 mg/dL | LDL, final (serum lipid parameters; [9]): 5.1 mmol/L | Cholesterol Total, final (serum lipid parameters; 28 subjects, mean ± SD, 42 days, 200 micrograms Cr daily): 6.6 mmol/L | Cholesterol Total, final (serum lipid parameters; 28 subjects, mean ± SD, 42 days, 200 micrograms Cr daily, listed as Chromic Tripicolinate): 6.6 ± 1.0 mmol/L | Apo B, final (serum lipid parameters; [10]): 130 ± 45 mg/dL | Cholesterol Total, final (serum lipid parameters; [10]): 256 ± 41 mg/dL | Apo A, initial (serum lipid parameters; [11]): 147 ± 28 mg/dL | Apo B, initial (serum lipid parameters; [11]): 155 mg/dL | LDL, initial (serum lipid parameters; [11]): 5.7 mmol/L | Apo B, initial (serum lipid parameters; 28 subjects, mean ± SD, start of 42-day period, listed as Chromic Tripicolinate): 155 ± 50 mg/dL | serum HDL-cholesterol, change in words (serum lipid parameters; 28 subjects, p>0.05): increased slightly but not significantly | LDL-cholesterol, decrease (serum lipid parameters; 42 days): 10% and 10.5% | Total cholesterol concentration, decrease (serum lipid parameters; 42 days): 7% | serum triglycerides, change in words (serum lipid parameters; 42 days): No significant changes | LDL-cholesterol, change in words (serum lipid parameters; [12]): decreased significantly; also recorded: significant (p<0.001) reductions | total cholesterol, change in words (serum lipid parameters; [12]): decreased significantly; also recorded: significant (p<0.001) reductions | apolipoprotein B, change in words (serum lipid parameters; combined results, 42 days, p=0.001): significant reduction; also recorded: decreased significantly | apolipoprotein A1, change in words (serum lipid parameters; combined results, 42 days, p=0.003): significant elevation; also recorded: significantly elevated | LDL-cholesterol, change in words (serum lipid parameters; final 42 days, placebo-first group, p=0.003): decreased significantly | total cholesterol, change in words (serum lipid parameters; final 42 days, placebo-first group, p=0.009): decreased significantly | apolipoprotein B, change in words (serum lipid parameters; first 6-week period, subjects starting with chromic tripicolinate, p=0.003): significantly decreased | total cholesterol, change in words (serum lipid parameters; first 6-week period, subjects starting with chromic tripicolinate, p=0.007): significantly decreased | LDL-cholesterol, change in words (serum lipid parameters; first 6-week period, subjects starting with chromic tripicolinate, p=0.015): significantly decreased | apolipoprotein A1, change in words (serum lipid parameters; first 6-week period, subjects starting with chromic tripicolinate, p=0.047): significantly elevated | subjects with decreased LDL-cholesterol (serum lipid parameters; of 28 subjects): 20 | subjects with elevated cholesterol (serum lipid parameters; of 28 subjects): 4 | subjects with lower total cholesterol (serum lipid parameters; of 28 subjects): 22 | subjects with unchanged LDL-cholesterol (serum lipid parameters; of 28 subjects): 3 | subjects with unchanged total cholesterol (serum lipid parameters; of 28 subjects): 2 | apolipoprotein B, change in words (serum lipid parameters; placebo-first group, after chromic tripicolinate, p=0.072): decreased, but not significantly | apolipoprotein A1, change in words (serum lipid parameters; placebo-first group, chromic tripicolinate period, p=0.007): increased significantly | Cholesterol [8, 13]: 211.4 | HDL [8, 13]: 52.3 | LDL [8, 13]: 139.5 | Fasting Bld Sugar [8, 14]: 162.2 | Hemoglobin A1 C [8, 14]: 10.4 | HDL, trend in words ([8]; P was not <0.05): trends were favorable | cholesterol, trend in words ([8]; P was not <0.05): trends were favorable | fasting glucose, change in words ([8]; diabetic subjects): significant decreases | glycosylated hemoglobin, change in words ([8]; diabetic subjects): significant decreases | Blood Pressure, first figure ([8]; human, in vivo): 132.9 | Blood Pressure, second figure ([8]; human, in vivo): 72.4 | Heart Rate ([8]; human, in vivo): 70.1 | Temperature ([8]; human, in vivo): 97.8 °F | blood pressure, change in words ([8]; human, in vivo): no significant changes | heart rate, change in words ([8]; human, in vivo): no significant changes | temperature, change in words ([8]; human, in vivo): no significant changes | weight, change in words ([8]; human, in vivo): no significant changes | LDL, decrease ([8]; treatment versus placebo (FIG. 9)): 8%

O=C([O-])c1ccccn1.O=C([O-])c1ccccn1.O=C([O-])c1ccccn1.[Cr+3] [Chromic (Cr-51) Picolinate, chromic (chromium-51) tripicolinate]
Total radioactivity in tissue, Kidney [5]: 157525 CPM | Total radioactivity in tissue, Liver [5]: 115075 CPM

[Cl][Cr]([Cl])[Cl] [chromic chloride, reference compound]
effect of supplementation, result in words [1]: improvements of risk factors associated with maturity-onset diabetes and cardiovascular diseases

[Cl][51Cr]([Cl])[Cl] [Chromic (Cr-51) Chloride, chromic (Cr^51) chloride, reference compound]
Total radioactivity in tissue, Kidney [5]: 39030 CPM | Total radioactivity in tissue, Liver [5]: 30050 CPM
